Experiment [1] relates to anti-OVA-IgE antibody production. The experiment in a line: Suppressive effect on mouse in vivo anti-OVA-IgE antibody production. The following applies: po, 336 h, BALB/c mice immunized with OVA on aluminium hydroxide gel, 100 mg/kg orally once a day for 5 days, serum on day 14, PCA reaction in Wistar rats, read-out: Suppressive rate for IgE antibody production (%). The protocol:
BALB/c mice, female, 7 weeks old, 7 mice in a group, and 9-11 mice in control group, were used for tests.
Suppressive effect of the compound of the present invention on IgE antibody production was evaluated according to a method described in the reference, Levin and Vaz, International Archives of Allergy and Applied Immunology, 39: 156, 1970. Immunization was performed by intraperitoneally administering aluminium hydroxide gel (4 mg, PIERCE Inc.) adsorbed with egg albumin (OVA; Sigma Inc.) 10 μg in mice. Test compounds were suspended or dissolved in water containing 0.5% carboxymethyl cellulose, and administered orally to test animals, 100 mg/kg, immediately after immunization, once a day for 5 days. Water containing 0.5% carboxymethyl cellulose without addition of test compound was administered to the control group.
On day 14 after the immunization, blood was collected, and passive cutaneous anaphylaxis (PCA) reaction was performed according to the method described in the reference, Ovary et al. International Archives of Allergy and Applied Immunology, 48: 16, 1975, to determine the antibody production. Serum 0.1 ml, which was serially twofold diluted with physiological saline, was injected intracutaneously in the back of Wistar rats, male, 8 weeks old. After 24 hours, 0.5% Evans blue physiological saline solution, which contains OVA 2 mg, 1 ml was injected intravenously to determine the serum boundary concentration of pigment infiltration.
Suppressive rate for IgE antibody production is determined by the following equation.
Suppressive rate for IgE antibody production (%) [formula]

Experiment [2] has as its system immediate type allergic foot-pad reaction. The experiment in a line: Suppression of mouse in vivo foot-pad reaction. To be noted: BALB/c mice immunized by egg albumin; oral 3-100 mg/kg once a day for 5 days; compared with the positive control. The method, then: BALB/c mice, female, 7 weeks old, 5 mice in a group for test group and 12-14 mice for control group were used for tests.
Effect of the compounds of the present invention on suppression of mouse in vivo foot-pad reaction is evaluated by the following method.
Mice were immunized by administering intraperitoneally 4 mg of aluminium hydroxide gel, which was adsorbed with OVA 5 μg. Test compounds were suspended or dissolved in water containing 0.5% carboxymethyl cellulose, and were administered to test animals orally at 3-100 mg/kg, once a day, for 5 days, from immediately after immunization. For control groups, water containing 0.5% carboxymethyl cellulose without addition of the test compound was administered.
After 10 days of immunization, OVA 10 μg was injected into the hindlim pads of mice to induce immediate type allergic foot-pad reaction. Control groups were divided into tow groups. The one was injected OVA to induce allergic foot-pad reaction for positive control, and the other was injected physiological saline for negative control. After 30 minutes, foot-pad volume of hidlimb of mice was measured by using Plethysmometer (Unicom Co.) to determine increased rate for comparison before induction of foot-pad reaction.
Suppressive rate for foot-pad reaction is obtained by the following equation.
Suppressive rate for foot-pad reaction (%) [formula]
A: increased rate of foot-pad reaction in positive control group,
B: increased rate of foot-pad reaction in negative control group,
C: increased rate of foot-pad reaction in test group (test compound administered group).

From patent publication US6376546B1, “Biphenyl-5-alkanoic acid derivatives and use thereof” (Asahi Kasei Kabushiki Kaisha, priority 1997, dated 2002) come the findings set out here.

As for `CCCCOc1ccc(CCC(=O)O)cc1-c1ccccc1` [Compound(01), 3-(2-butoxy-1,1′-biphenyl-5-yl)propionic acid], the inhibition in vivo at 100 mg/kg in experiment [1] came to 72.3%.

Turning to `CCCCCOc1ccc(CCC(=O)O)cc1-c1ccccc1` [Compound(03), 3-(2-pentyloxy-1,1′-biphenyl-5-yl)propionic Acid], the inhibition in vivo at 100 mg/kg in experiment [1] was 50.9%.

Regarding `O=C(O)CCc1ccc(OC2CCCC2)c(-c2ccccc2)c1` [Compound(04), 3-(2-cyclopentyloxy-1,1′-biphenyl-5-yl)propionic Acid], the inhibition in vivo at 100 mg/kg in experiment [1] amounted to 45.5%. The “suppressive action against immediate type allergic foot-pad reaction” value (shortened to “suppressive action”) in experiment [2] is “significant suppressive action”.

As for `O=C(O)CCc1ccc(OCC2CCCCC2)c(-c2ccccc2)c1` [Compound(07), 3-(2-cyclohexylmethyloxy-1,1′-biphenyl-5-yl)propionic Acid], the inhibition in vivo at 100 mg/kg in experiment [1] stood at 62%. Further, the “suppressive action” value in experiment [2] is “significant suppressive action”.

Regarding `CCC(O)COc1ccc(CCC(=O)O)cc1-c1ccccc1` (centres unmarked) [Compound(08), 3-[2-(2-hydroxybutyloxy)-1,1′-biphenyl-5-yl]propionic acid], the inhibition in vivo at 100 mg/kg in experiment [1] is 58.9%.

Take `O=C(O)CCc1ccc(OCC(=O)O)c(-c2ccccc2)c1` [Compound(12), 3-(2-carboxymethyloxy-1,1′-biphenyl-5-yl)propionic acid]: in experiment [1], the inhibition in vivo at 100 mg/kg amounted to 50.8%.

Take `CCCCOc1c(NC(C)=O)cc(CCC(=O)O)cc1-c1ccccc1` [Compound(15), 3-(3-acetylamino-2-butoxy-1,1′-biphenyl-5-yl)propionic Acid]: the inhibition in vivo at 100 mg/kg in experiment [1] came out at 64.2%.

In the case of `NC(=O)Nc1cc(CCC(=O)O)cc(-c2ccccc2)c1OCC1CCCCC1` [Compound(22), 3-(3-carbamoylamino-2-cyclohexylmethyloxy-1,1′-biphenyl-5-yl)propionic Acid], the inhibition in vivo at 100 mg/kg in experiment [1] is 48.1%. For the same compound, in experiment [2], the “suppressive action” value was “significant suppressive action”.

Turning to `O=C(O)CCc1ccc(OCC2CCCCC2)c(-c2ccc(O)cc2)c1` [Compound(25), 3-(2-cyclohexylmethyloxy-4′-hydroxy-1,1′-biphenyl-5-yl)propionic Acid], in experiment [1], the inhibition in vivo at 100 mg/kg was 45.5%. Further, the “suppressive action” value in experiment [2] is “significant suppressive action”.

With `CCCCOc1ccc(CCCC(=O)O)cc1-c1ccccc1` [Compound(28), 4-(2-butoxy-1,1′-biphenyl-5-yl)butyric Acid], the inhibition in vivo at 100 mg/kg in experiment [1] came out at 44.5%. Besides, the “suppressive action” value in experiment [2] is on record as “significant suppressive action”.

Consider `CC(C)COc1ccc(CCCC(=O)O)cc1-c1ccccc1` [Compound(29), 4-(2-isobutoxy-1,1′-biphenyl-5-yl)butyric Acid], for which the inhibition in vivo at 100 mg/kg in experiment [1] worked out at 55.7%.

With `CCCCCOc1ccc(CCCC(=O)O)cc1-c1ccccc1` [Compound(31), 4-(2-pentyloxy-1,1′-biphenyl-5-yl)butyric Acid], the inhibition in vivo at 100 mg/kg in experiment [1] was determined as 49.8%.

Consider `O=C(O)CCCc1ccc(OCC(=O)O)c(-c2ccccc2)c1` [Compound(44), 4-(2-carboxymethyloxy-1,1′-biphenyl-5-yl)butyric Acid], for which the inhibition in vivo at 100 mg/kg in experiment [1] amounted to 71.5%. For the same compound, the “suppressive action” value in experiment [2] is reported as “significant suppressive action”.

For `O=C(O)CCCc1ccc(OCCC(=O)O)c(-c2ccccc2)c1` [Compound(45), 4-[2-(2-carboxyethyloxy)-1,1′-biphenyl-5-yl]butyric Acid], the inhibition in vivo at 100 mg/kg in experiment [1] amounted to 57%.

Turning to `O=C(O)CCCOc1ccc(CCCC(=O)O)cc1-c1ccccc1` [Compound(46), 4-[2-(3-carboxypropyloxy)-1,1′-biphenyl-5-yl]butyric Acid], in experiment [1], the inhibition in vivo at 100 mg/kg was 64.6%.

As for `NC(=O)COc1ccc(CCCC(=O)O)cc1-c1ccccc1` [Compound(47), 4-(2-carbamoylmethyloxy-1,1′-biphenyl-5-yl)butyric Acid], in experiment [1], the inhibition in vivo at 100 mg/kg turned out to be 65.7%. Also, the “suppressive action” value in experiment [2] was “significant suppressive action”.

With `CCCCOc1c(NC(C)=O)cc(CCCC(=O)O)cc1-c1ccccc1` [Compound(52), 4-(3-acetylamino-2-butoxy-1,1′-biphenyl-5-yl)butyric Acid], the inhibition in vivo at 100 mg/kg in experiment [1] is 64.2%.

As to `CCCCOc1ccc(CCCC(N)=O)cc1-c1ccccc1` [Compound(55), 4-(2-butoxy-1,1′-biphenyl-5-yl)butyramide], the inhibition in vivo at 100 mg/kg in experiment [1] amounted to 55.7%. Moreover, the “suppressive action” value in experiment [2] was “significant suppressive action”.

Consider `COc1ccc(CCC(=O)O)cc1-c1ccccc1` [Control(1), 3-(2-methoxy-1,1′-biphenyl-5-yl)propionic acid, reference compound], for which the inhibition in vivo at 100 mg/kg in experiment [1] is -14.4%.

As for `C=CCOc1ccc(-c2cc(CCC(=O)OC)ccc2OCc2ccccc2)cc1` [Control(2), Methyl 3-(4′-allyloxy-2-benzyloxy-1,1′-biphenyl-5-yl)propionate, reference compound], the inhibition in vivo at 100 mg/kg in experiment [1] is -11.6%.

As for `CC1(C)CCC(C)(C)c2cc(COc3ccc(C(=O)O)cc3-c3ccccc3)ccc21` [Control(3), [2-(5,6,7,8-tetrahydro-5,5,8,8-tetramethyl-2-naphthalenyl)methyloxy-1,1′-biphenyl-5-yl]carboxylic acid, reference compound], the inhibition in vivo at 100 mg/kg in experiment [1] is -2.8%.

For the compound `CC1(C)CCC(C)(C)c2cc(COc3cccc(CCC(=O)O)c3-c3cccc(C(=O)O)c3)ccc21` [Control(4), 3-[3′-carboxy-2-(5,6,7,8-tetrahydro-5,5,8,8-tetramethyl-2-naphthalenyl)methyloxy-1,1′-biphenyl-6-yl]propionic acid, reference compound], the inhibition in vivo at 100 mg/kg in experiment [1] is -8.4%.

Turning to `CCCCOc1ccc(CCCC(=O)NCC)cc1-c1ccccc1` [Control(5), N-ethyl-4-(2-butoxy-1,1′-biphenyl-5-yl)butyramide, reference compound], the inhibition in vivo at 100 mg/kg in experiment [1] is -2.5%.

In the case of `CCCCOc1ccc(-c2ccccc2)cc1CCCC(=O)O` [Control(6), 4-(4-butoxy-1,1′-biphenyl-3-yl)butyric acid, reference compound], the inhibition in vivo at 100 mg/kg in experiment [1] is 7.3%.
